Experimental data: patent publication US6613718B2, “Aryl ether derivatives and processes for their preparation and herbicidal and desiccant compositions containing them” (Ishihara Sangyo Kaisha, Ltd., priority 2001, dated 2003)

Tests used:
Format in all cases: in vivo
Details in all cases: 14 days after application
[1] = system: barnyardgrass (Echinochloa crus-galli, ECHCG); assay: Pre-emerge greenhouse herbicide activity screening, phytotoxicity rating
Text: (§1) A standard greenhouse herbicide activity screening system was used to evaluate the herbicidal efficacy and crop safety of these test compounds. Seven broadleaf weed species including redroot pigweed (Amaranthus retroflexus, AMARE), velvetleaf (Abutilon theophrasti, ABUTH), sicklepod (Cassia obtusifolia, CASOB), ivyleaf morningglory (Ipomoea hederacea, IPOHE), lambsquarters (Chenopodium album, CHEAL), common ragweed (Ambrosia artemisiifolia L., AMBEL), and cocklebur (Xanthium strumarium, XANST) were used as test species. Four grass weed species including green foxtail (Setaria viridis, SETVI), barnyardgrass (Echinochloa crus-galli, ECHCG), johnsongrass (Sorghum halepense, SORHA), and large crabgrass (Digitaria sanguinalis, DIGSA) were also used. In addition, three crop species, field corn (Zea mays L., var. Dekalb 535, CORN), soybean (Glycine max L., var. Pella 86, SOY), and upland rice (Oryza sp., var.Tebonnet, RICE) were included.
(§2) All plants were grown in 10 cm square plastic pots which were filled with a sandy loam soil mix. For pre-emerge tests, seeds were planted one day prior to application of the test compounds. For post-emerge tests, seeds were planted 8-21 days prior to the test to allow emergence and good foliage development prior to application of the test substances. At the time of the post-emerge application, plants of all species were usually at the 2-3 leaf stage of development.
(§3) All test compounds were dissolved in acetone and applied to the test units in a volume of 187 1/ha. Test materials were applied at rates ranging from 15 g ai/ha to 1000 g ai/ha using a track sprayer equipped with a TJ8001E even flow flat fan spray nozzle. Plants were arranged on a shelf so that the top of the canopy (post-emerge) or top of the soil surface (pre-emerge) was 40-45 cm below the nozzle. Pressurized air was used to force the test solution through the nozzle as it was mechanically advanced (via electrically driven chain drive) over the top of all test plants/pots. This application simulates a typical commercial field herbicide application.
(§4) In the post-emerge test, a commercial non-ionic surfactant was also included (0.25% v/v) to enhance wetting of the leaf surfaces of target plants. Immediately after application, test units of the pre-emerge applications were watered at the soil surface to incorporate the test materials. Subsequently, these test units were bottom-watered. Post-emerge test units were always bottom-watered.
(§5) At 14 days after application of the test materials, phytotoxicity ratings were recorded. A rating scale of 0-100 was used as previously described in Research Methods in Weed Science, 2nd edition, B. Truelove, Ed., Southern Weed Science Society, Auburn University, Auburn, Ala., 1977. Briefly, “0” corresponds to no damage and “100” corresponds to complete death of all plants in the test unit. This scale was used both to determine efficacy against weed species and damage to crop species. Herbicide activity data for various compounds of this invention, which are shown by compound No. in Tables I-VI, are shown in Tables VIII-IX.

[2] = system: common ragweed (Ambrosia artemisiifolia L., AMBEL); assay: as above
Text: as §1, §2, §3, §4, §5

[3] = system: green foxtail (Setaria viridis, SETVI); assay: as above
Text: as §1, §2, §3, §4, §5

[4] = system: ivyleaf morningglory (Ipomoea hederacea, IPOHE); assay: as above
Text: as §1, §2, §3, §4, §5

[5] = system: johnsongrass (Sorghum halepense, SORHA); assay: as above
Text: as §1, §2, §3, §4, §5

[6] = system: lambsquarters (Chenopodium album, CHEAL); assay: as above
Text: as §1, §2, §3, §4, §5

[7] = system: large crabgrass (Digitaria sanguinalis, DIGSA); assay: as above
Text: as §1, §2, §3, §4, §5

[8] = system: redroot pigweed (Amaranthus retroflexus, AMARE); assay: as above
Text: as §1, §2, §3, §4, §5

[9] = system: sicklepod (Cassia obtusifolia, CASOB); assay: as above
Text: as §1, §2, §3, §4, §5

[10] = system: velvetleaf (Abutilon theophrasti, ABUTH); assay: as above
Text: as §1, §2, §3, §4, §5

[11] = system: field corn (Zea mays L., var. Dekalb 535, CORN); assay: Pre-emerge greenhouse screening, crop safety (phytotoxicity rating)
Text: as §1, §2, §3, §4, §5

[12] = system: soybean (Glycine max L., var. Pella 86, SOY); assay: as above
Text: as §1, §2, §3, §4, §5

[13] = system: upland rice (Oryza sp., var.Tebonnet, RICE); assay: as above
Text: as §1, §2, §3, §4, §5

[14] = system: barnyardgrass (Echinochloa crus-galli, ECHCG); assay: Post-emerge greenhouse herbicide activity screening, phytotoxicity rating
Text: as §1, §2, §3, §4, §5

[15] = system: common ragweed (Ambrosia artemisiifolia L., AMBEL); assay: as above
Text: as §1, §2, §3, §4, §5

[16] = system: green foxtail (Setaria viridis, SETVI); assay: as above
Text: as §1, §2, §3, §4, §5

[17] = system: ivyleaf morningglory (Ipomoea hederacea, IPOHE); assay: as above
Text: as §1, §2, §3, §4, §5

[18] = system: johnsongrass (Sorghum halepense, SORHA); assay: as above
Text: as §1, §2, §3, §4, §5

[19] = system: lambsquarters (Chenopodium album, CHEAL); assay: as above
Text: as §1, §2, §3, §4, §5

[20] = system: large crabgrass (Digitaria sanguinalis, DIGSA); assay: as above
Text: as §1, §2, §3, §4, §5

[21] = system: redroot pigweed (Amaranthus retroflexus, AMARE); assay: as above
Text: as §1, §2, §3, §4, §5

[22] = system: sicklepod (Cassia obtusifolia, CASOB); assay: as above
Text: as §1, §2, §3, §4, §5

[23] = system: velvetleaf (Abutilon theophrasti, ABUTH); assay: as above
Text: as §1, §2, §3, §4, §5

[24] = system: field corn (Zea mays L., var. Dekalb 535, CORN); assay: Post-emerge greenhouse screening, crop safety / corn selectivity (phytotoxicity rating)
Text: as §1, §2, §3, §4, §5

[25] = system: soybean (Glycine max L., var. Pella 86, SOY); assay: Post-emerge greenhouse screening, crop safety (phytotoxicity rating)
Text: as §1, §2, §3, §4, §5

[26] = system: upland rice (Oryza sp., var.Tebonnet, RICE); assay: as above
Text: as §1, §2, §3, §4, §5

SMILES: Cn1c(C(F)(F)F)cc(=O)n(-c2cc(Oc3ncccc3C(F)(F)F)c(Cl)cc2F)c1=S [Compound 1-15]
- ECHCG phytotoxicity rating (0-100 scale) ([1]; 125 g ai/ha): 50
- ECHCG phytotoxicity rating (0-100 scale) ([1]; 250 g ai/ha): 65
- AMBEL phytotoxicity rating (0-100 scale) ([2]; 125 g ai/ha): 75
- AMBEL phytotoxicity rating (0-100 scale) ([2]; 250 g ai/ha): 90
- SETVI phytotoxicity rating (0-100 scale) ([3]; 125 g ai/ha): 100
- SETVI phytotoxicity rating (0-100 scale) ([3]; 250 g ai/ha): 100
- IPOHE phytotoxicity rating (0-100 scale) ([4]; 125 g ai/ha): 95
- IPOHE phytotoxicity rating (0-100 scale) ([4]; 250 g ai/ha): 100
- SORHA phytotoxicity rating (0-100 scale) ([5]; 125 g ai/ha): 60
- SORHA phytotoxicity rating (0-100 scale) ([5]; 250 g ai/ha): 98
- CHEAL phytotoxicity rating (0-100 scale) ([6]; 125 g ai/ha): 100
- CHEAL phytotoxicity rating (0-100 scale) ([6]; 250 g ai/ha): 100
- DIGSA phytotoxicity rating (0-100 scale) ([7]; 125 g ai/ha): 99
- DIGSA phytotoxicity rating (0-100 scale) ([7]; 250 g ai/ha): 100
- AMARE phytotoxicity rating (0-100 scale) ([8]; 125 g ai/ha): 100
- AMARE phytotoxicity rating (0-100 scale) ([8]; 250 g ai/ha): 100
- CASOB phytotoxicity rating (0-100 scale) ([9]; 125 g ai/ha): 55
- CASOB phytotoxicity rating (0-100 scale) ([9]; 250 g ai/ha): 85
- ABUTH phytotoxicity rating (0-100 scale) ([10]; 125 g ai/ha): 100
- ABUTH phytotoxicity rating (0-100 scale) ([10]; 250 g ai/ha): 100
- CORN crop damage, phytotoxicity rating (0-100 scale) ([11]; 125 g ai/ha): 8
- CORN crop damage, phytotoxicity rating (0-100 scale) ([11]; 250 g ai/ha): 8
- SOY crop damage, phytotoxicity rating (0-100 scale) ([12]; 125 g ai/ha): 0
- SOY crop damage, phytotoxicity rating (0-100 scale) ([12]; 250 g ai/ha): 35
- RICE crop damage, phytotoxicity rating (0-100 scale) ([13]; 125 g ai/ha): 0
- RICE crop damage, phytotoxicity rating (0-100 scale) ([13]; 250 g ai/ha): 0
- ECHCG phytotoxicity rating (0-100 scale) ([14]; 125 g ai/ha): 0
- ECHCG phytotoxicity rating (0-100 scale) ([14]; 250 g ai/ha): 0
- AMBEL phytotoxicity rating (0-100 scale) ([15]; 125 g ai/ha): 55
- AMBEL phytotoxicity rating (0-100 scale) ([15]; 250 g ai/ha): 55
- SETVI phytotoxicity rating (0-100 scale) ([16]; 125 g ai/ha): 0
- SETVI phytotoxicity rating (0-100 scale) ([16]; 250 g ai/ha): 0
- IPOHE phytotoxicity rating (0-100 scale) ([17]; 125 g ai/ha): 75
- IPOHE phytotoxicity rating (0-100 scale) ([17]; 250 g ai/ha): 100
- SORHA phytotoxicity rating (0-100 scale) ([18]; 125 g ai/ha): 0
- SORHA phytotoxicity rating (0-100 scale) ([18]; 250 g ai/ha): 0
- CHEAL phytotoxicity rating (0-100 scale) ([19]; 125 g ai/ha): 100
- CHEAL phytotoxicity rating (0-100 scale) ([19]; 250 g ai/ha): 100
- DIGSA phytotoxicity rating (0-100 scale) ([20]; 125 g ai/ha): 0
- DIGSA phytotoxicity rating (0-100 scale) ([20]; 250 g ai/ha): 0
- AMARE phytotoxicity rating (0-100 scale) ([21]; 125 g ai/ha): 90
- AMARE phytotoxicity rating (0-100 scale) ([21]; 250 g ai/ha): 90
- CASOB phytotoxicity rating (0-100 scale) ([22]; 125 g ai/ha): 60
- CASOB phytotoxicity rating (0-100 scale) ([22]; 250 g ai/ha): 65
- ABUTH phytotoxicity rating (0-100 scale) ([23]; 125 g ai/ha): 95
- ABUTH phytotoxicity rating (0-100 scale) ([23]; 250 g ai/ha): 95
- CORN crop damage, phytotoxicity rating (0-100 scale) ([24]; 125 g ai/ha): 5
- CORN crop damage, phytotoxicity rating (0-100 scale) ([24]; 250 g ai/ha): 5
- SOY crop damage, phytotoxicity rating (0-100 scale) ([25]; 125 g ai/ha): 10
- SOY crop damage, phytotoxicity rating (0-100 scale) ([25]; 250 g ai/ha): 10
- RICE crop damage, phytotoxicity rating (0-100 scale) ([26]; 125 g ai/ha): 0
- RICE crop damage, phytotoxicity rating (0-100 scale) ([26]; 250 g ai/ha): 0
